Experimental data taken from publication PMC12663261 (Nature Communications, 2025).

What was measured:
[1] = molecular target: T1, hcis-PT (DHDDS / NgBR complex) (Homo sapiens, UniProt Q86SQ9+Q96E22); experiment: HDX-MS, ligand-bound versus apo; assay type: binding; details: 6-molar excess ligand, 5 mM MgCl2, pD 7.5, 4 °C; active site
T1 sequence (Q86SQ9 1-333): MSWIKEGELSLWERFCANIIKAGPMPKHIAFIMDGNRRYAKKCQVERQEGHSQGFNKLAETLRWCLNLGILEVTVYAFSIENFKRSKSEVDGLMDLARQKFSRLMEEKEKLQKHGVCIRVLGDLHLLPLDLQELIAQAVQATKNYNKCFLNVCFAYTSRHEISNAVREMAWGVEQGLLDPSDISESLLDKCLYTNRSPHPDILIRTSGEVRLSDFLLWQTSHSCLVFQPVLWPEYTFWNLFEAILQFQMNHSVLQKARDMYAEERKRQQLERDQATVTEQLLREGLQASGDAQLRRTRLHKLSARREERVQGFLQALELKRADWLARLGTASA
T1 sequence (Q96E22 73-293): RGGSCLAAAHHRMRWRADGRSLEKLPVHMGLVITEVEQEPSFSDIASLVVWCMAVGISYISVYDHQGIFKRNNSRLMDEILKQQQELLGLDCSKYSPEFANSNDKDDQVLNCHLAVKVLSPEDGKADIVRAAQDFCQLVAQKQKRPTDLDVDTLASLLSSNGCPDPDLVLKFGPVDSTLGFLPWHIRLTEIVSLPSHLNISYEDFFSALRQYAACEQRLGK

[2] = molecular target: T1, hcis-PT (DHDDS / NgBR complex); experiment: fluorescence increase upon chain elongation; assay type: biochemical; details: 5 uM with 100 uM IPP, 0.2 uM enzyme, 0.5 mM MgCl2, pH 7.5

SMILES	HDX-MS, ligand-bound versus apo [1]	fluorescence increase upon chain elongation (Ex 352 nm, Em 425 nm) [2]
CC(C)=CCC/C(C)=C/CC/C(C)=C/CC/C(C)=C/COP(=O)(O)OP(=O)(O)O [GGPP]	binding of either FPP or GGPP resulted in decreased HDX throughout the active site	
CC(C)=CCC/C(C)=C/CC/C(C)=C/COP(=O)(O)OP(=O)(O)O [FPP]	binding of either FPP or GGPP resulted in decreased HDX throughout the active site	
CNc1ccccc1C(=O)OC/C(C)=C/CC/C(C)=C/COP(=O)(O)OP(=O)(O)O [MANT-O-GPP, (2E,6E)-8-O-(N-methyl-2-aminobenzoyl)-3,7-dimethyl-2,6-octandien-1-pyrophosphate]		MANT-O-GPP exhibits an increase in fluorescence upon chain elongation by hcis-PT
